13 compounds from patent US9603889B2, “IAP antagonists” (BRISTOL-MYERS SQUIBB COMPANY, priority 2012, dated 2017) can be followed below.

In the assay the target is XIAP BIR3 (N-His-Tb-BIR3(241-356, XIAP)) (Homo sapiens (Human), UniProt P98170). The class given is binding. To be noted: 130 nM N-His-Tb-BIR3(241-356, XIAP), 1.4 nM fluoresceinated modified SMAC peptide, 60 minutes room temperature; read-out: XIAP BIR3 FPA IC50.
Chain of XIAP BIR3 (N-His-Tb-BIR3(241-356, XIAP)) (P98170 241-356): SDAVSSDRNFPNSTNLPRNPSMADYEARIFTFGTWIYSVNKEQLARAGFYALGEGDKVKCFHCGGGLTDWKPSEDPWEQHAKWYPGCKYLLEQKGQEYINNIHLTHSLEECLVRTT
What is called IC50 is the concentration that inhibits the measured activity by half. With `CN[C@@H](C)C(=O)N[C@H](C(=O)N1C[C@@H](NC(=O)c2ccc(CN(C(=O)[C@@H]3Cc4ccccc4CN3C(=O)[C@@H](NC(=O)[C@H](C)NC)C(C)(C)C)[C@H](C)c3cccc(OC)c3)cc2)C[C@H]1C(=O)N[C@@H]1CCCc2ccccc21)C(C)(C)C` [Example 3, (S)-2-((S)-3,3-Dimethyl-2-((S)-2-(methylamino)propanamido)butanoyl)-N-(4-(((3S,5S)-1-((S)-3,3-dimethyl-2-((S)-2-(methylamino)propanamido)butanoyl)-5-(((R)-1,2,3,4-tetrahydronaphthalen-1-yl)carbamoyl)pyrrolidin-3-yl)carbamoyl)benzyl)-N-((R)-1-(3-methoxyphenyl)ethyl)-1,2,3,4-tetrahydroisoquinoline-3-carboxamide], the half-inhibitory concentration (IC50) came out at 60 nM.

For the compound `CN[C@@H](C)C(=O)N[C@H](C(=O)N1C[C@@H](NC(=O)c2ccc(CN(C(=O)[C@@H]3Cc4ccccc4CN3C(=O)[C@@H](NC(=O)[C@H](C)NC)C(C)(C)C)[C@H](C)c3ccc(F)cc3)cc2)C[C@H]1C(=O)N[C@@H]1CCCc2ccccc21)C(C)(C)C` [Example 4, (S)-2-((S)-3,3-Dimethyl-2-((S)-2-(methylamino)propanamido)butanoyl)-N-(4-(((3S,5S)-1-((S)-3,3-dimethyl-2-((S)-2-(methylamino)propanamido)butanoyl)-5-(((R)-1,2,3,4-tetrahydronaphthalen-1-yl)carbamoyl)pyrrolidin-3-yl)carbamoyl)benzyl)-N-((R)-1-(4-fluorophenyl)ethyl)-1,2,3,4-tetrahydroisoquinoline-3-carboxamide], the IC50 came out at 100 nM.

For `CN[C@@H](C)C(=O)N[C@H](C(=O)N1C[C@@H](NC(=O)c2ccc(CN(C(=O)[C@@H]3Cc4ccccc4CN3C(=O)[C@@H](NC(=O)[C@H](C)NC)C(C)(C)C)[C@H](C)c3ccccc3Cl)cc2)C[C@H]1C(=O)N[C@@H]1CCCc2ccccc21)C(C)(C)C` [Example 5, (S)-N-((R)-1-(2-Chlorophenyl)ethyl)-2-((S)-3,3-dimethyl-2-((S)-2-(methylamino)propanamido)butanoyl)-N-(4-(((3S,5S)-1-((S)-3,3-dimethyl-2-((S)-2-(methylamino)propanamido)butanoyl)-5-(((R)-1,2,3,4-tetrahydronaphthalen-1-yl)carbamoyl)pyrrolidin-3-yl)carbamoyl)benzyl)-1,2,3,4-tetrahydroisoquinoline-3-carboxamide], the IC50 came to 220 nM.

`CCC[C@H](c1ccccc1)N(Cc1ccc(C(=O)N[C@H]2C[C@@H](C(=O)N[C@@H]3CCCc4ccccc43)N(C(=O)[C@@H](NC(=O)[C@H](C)NC)C(C)(C)C)C2)cc1)C(=O)[C@@H]1Cc2ccccc2CN1C(=O)[C@@H](NC(=O)[C@H](C)NC)C(C)(C)C` [Example 7, (S)-2-((S)-3,3-Dimethyl-2-((S)-2-(methylamino)propanamido)butanoyl)-N-(4-(((3S,5S)-1-((S)-3,3-dimethyl-2-((S)-2-(methylamino)propanamido)butanoyl)-5-(((R)-1,2,3,4-tetrahydronaphthalen-1-yl)carbamoyl)pyrrolidin-3-yl)carbamoyl)benzyl)-N-((R)-1-phenylbutyl)-1,2,3,4-tetrahydroisoquinoline-3-carboxamide]: the IC50 amounted to 190 nM.

Regarding `CN[C@@H](C)C(=O)N[C@H](C(=O)N1Cc2ccccc2C[C@H]1CN(CCc1ccccc1)C(=O)c1ccc(C(=O)N[C@H]2C[C@@H](C(=O)N[C@@H]3CCCc4ccccc43)N(C(=O)[C@@H](NC(=O)[C@H](C)NC)C(C)(C)C)C2)cc1)C(C)(C)C` [Example 10, N^1-(((S)-2-((S)-3,3-Dimethyl-2-((S)-2-(methylamino)propanamido)butanoyl)-1,2,3,4-tetrahydroisoquinolin-3-yl)methyl)-N^4-((3S,5S)-1-((S)-3,3-dimethyl-2-((S)-2-(methylamino)propanamido)butanoyl)-5-(((R)-1,2,3,4-tetrahydronaphthalen-1-yl)carbamoyl)pyrrolidin-3-yl)-N^1-phenethylterephthalamide], the IC50 came to 60 nM.

`CN[C@@H](C)C(=O)N[C@H](C(=O)N1C[C@@H](NC(=O)c2ccc(CN(Cc3cccc(Cl)c3Cl)C(=O)[C@@H]3Cc4ccccc4CN3C(=O)[C@@H](NC(=O)[C@H](C)NC)C(C)(C)C)cc2)C[C@H]1C(=O)N[C@@H]1CCCc2ccccc21)C(C)(C)C` [Example 11, (S)-N-(2,3-Dichlorobenzyl)-2-((S)-3,3-dimethyl-2-((S)-2-(methylamino)propanamido)butanoyl)-N-(4-(((3S,5S)-1-((S)-3,3-dimethyl-2-((S)-2-(methylamino)propanamido)butanoyl)-5-(((R)-1,2,3,4-tetrahydro-naphthalen-1-yl)carbamoyl)pyrrolidin-3-yl)carbamoyl)benzyl)-1,2,3,4-tetra-hydroisoquinoline-3-carboxamide]: the IC50 was found to be 70 nM.

Regarding `CN[C@@H](C)C(=O)N[C@H](C(=O)N1C[C@@H](NC(=O)c2ccc(CN(CCc3ccc4ccccc4c3)C(=O)[C@@H]3Cc4ccccc4CN3C(=O)[C@@H](NC(=O)[C@H](C)NC)C(C)(C)C)cc2)C[C@H]1C(=O)N[C@@H]1CCCc2ccccc21)C(C)(C)C` [Example 12, (S)-2-((S)-3,3-Dimethyl-2-((S)-2-(methylamino)propanamido)butanoyl)-N-(4-(((3S,5S)-1-((S)-3,3-dimethyl-2-((S)-2-(methyl-amino)propanamido)butanoyl)-5-(((R)-1,2,3,4-tetrahydro-naphthalen-1-yl)carbamoyl)pyrrolidin-3-yl)carbamoyl)benzyl)-N-(2-(naphthalen-2-yl)ethyl)-1,2,3,4-tetrahydro-isoquinoline-3-carboxamide], the IC50 was 90 nM.

As for `CN[C@@H](C)C(=O)N[C@H](C(=O)N1C[C@@H](NC(=O)c2ccc(CN(Cc3ccccc3)C(=O)[C@@H]3Cc4ccccc4CN3C(=O)[C@@H](NC(=O)[C@H](C)NC)C(C)(C)C)cc2)C[C@H]1C(=O)N[C@@H]1CCCc2ccccc21)C(C)(C)C` [Example 13, (S)-N-Benzyl-2-((S)-3,3-dimethyl-2-((S)-2-(methylamino)propanamido)butanoyl)-N-(4-(((3S,5S)-1-((S)-3,3-dimethyl-2-((S)-2-(methylamino)propanamido)butanoyl)-5-(((R)-1,2,3,4-tetrahydro-naphthalen-1-yl)carbamoyl)pyrrolidin-3-yl)carbamoyl)benzyl)-1,2,3,4-tetra-hydroisoquinoline-3-carboxamide], the IC50 is 40 nM.

For the compound `CN[C@@H](C)C(=O)N[C@H](C(=O)N1C[C@@H](NC(=O)c2ccc(CN(Cc3ccc4ccccc4c3)C(=O)[C@@H]3Cc4ccccc4CN3C(=O)[C@@H](NC(=O)[C@H](C)NC)C(C)(C)C)cc2)C[C@H]1C(=O)N[C@@H]1CCCc2ccccc21)C(C)(C)C` [Example 14, (S)-2-((S)-3,3-Dimethyl-2-((S)-2-(methyl-amino)propanamido)butanoyl)-N-(4-(((3S,5S)-1-((S)-3,3-dimethyl-2-((S)-2-(methylamino)propanamido)butanoyl)-5-(((R)-1,2,3,4-tetra-hydronaphthalen-1-yl)carbamoyl)pyrrolidin-3-yl)carbamoyl)benzyl)-N-(naphthalen-2-ylmethyl)-1,2,3,4-tetrahydro-isoquinoline-3-carboxamide], the IC50 worked out at 40 nM.

With `CN[C@@H](C)C(=O)N[C@H](C(=O)N1C[C@@H](NC(=O)c2ccc(CN(C(=O)[C@@H]3Cc4ccccc4CN3C(=O)[C@@H](NC(=O)[C@H](C)NC)C(C)(C)C)[C@H](C)c3ccc4ccccc4c3)cc2)C[C@H]1C(=O)N[C@@H]1CCCc2ccccc21)C(C)(C)C` [Example 15, (S)-2-((S)-3,3-Dimethyl-2-((S)-2-(methylamino)propanamido)butanoyl)-N-(4-(((3S,5S)-1-((S)-3,3-dimethyl-2-((S)-2-(methylamino)propanamido)butanoyl)-5-(((R)-1,2,3,4-tetra-hydronaphthalen-1-yl)carbamoyl)pyrrolidin-3-yl)carbamoyl)benzyl)-N-((R)-1-(naphthalen-2-yl)ethyl)-1,2,3,4-tetrahydro-isoquinoline-3-carboxamide], the IC50 worked out at 90 nM.

On to `CN[C@@H](C)C(=O)N[C@H](C(=O)N1CCc2ccccc2[C@H]1C(=O)N(CCc1ccccc1)Cc1ccc(C(=O)NC2C[C@@H](C(=O)NC3CCCc4ccccc43)N(C(=O)[C@@H](NC(=O)[C@H](C)NC)C(C)(C)C)C2)cc1)C(C)(C)C` (stereo partly shown) [Example 16], for which the IC50 was 70 nM.

On to `CN[C@@H](C)C(=O)N[C@H](C(=O)N1C[C@@H](NC(=O)c2ccc(CN(C(=O)[C@@H]3Cc4ccccc4CN3C(=O)[C@@H](NC(=O)[C@H](C)NC)C(C)(C)C)[C@@H](C)c3cccc(Cl)c3)cc2)C[C@H]1C(=O)N[C@@H]1CCCc2ccccc21)C(C)(C)C` [Example 18, (S)-N-((S)-1-(3-Chlorophenyl)ethyl)-2-((S)-3,3-dimethyl-2-((S)-2-(methylamino)propanamido)butanoyl)-N-(4-(((3S,5S)-1-((S)-3,3-dimethyl-2-((S)-2-(methylamino)propanamido)butanoyl)-5-(((R)-1,2,3,4-tetrahydro-naphthalen-1-yl)carbamoyl)pyrrolidin-3-yl)carbamoyl)benzyl)-1,2,3,4-tetrahydro-isoquinoline-3-carboxamide], for which the IC50 was found to be 120 nM.

In the case of `CN[C@@H](C)C(=O)N[C@H](C(=O)N1CCc2ccccc2[C@H]1C(=O)N(Cc1ccc(C(=O)N[C@H]2C[C@@H](C(=O)N[C@@H]3CCCc4ccccc43)N(C(=O)[C@@H](NC(=O)[C@H](C)NC)C(C)(C)C)C2)cc1)[C@H](C)c1ccccc1F)C(C)(C)C` [Example 19, (S)-2-((S)-3,3-Dimethyl-2-((S)-2-(methylamino)propanamido)butanoyl)-N-(4-(((3S,5S)-1-((S)-3,3-dimethyl-2-((S)-2-(methylamino)propanamido)butanoyl)-5-(((R)-1,2,3,4-tetra-hydronaphthalen-1-yl)carbamoyl)pyrrolidin-3-yl)carbamoyl)benzyl)-N-((R)-1-(2-fluorophenyl)ethyl)-1,2,3,4-tetrahydro-isoquinoline-1-carboxamide], the 50% inhibitory concentration (IC50) was found to be 290 nM.
